In patent US8604004B2, “Moenomycin analogs, methods of synthesis, and uses thereof” (President and Fellows of Harvard College, priority 2007, dated 2013):
Converted amounts (≈) assume the structure as drawn. Where two headings read alike, the source gives them in different places.

Columns and labels:
[1] = target: T1, S. aureus PBP2 (Staphylococcus aureus, UniProt Q9R744); assay: IC50 for transglycosylase inhibition, S. aureus PBP2, [14C]-GlcNAc-labeled lipid II analogue; type: biochemical
T1 construct: made in house
T1 sequence (Q9R744 1-727): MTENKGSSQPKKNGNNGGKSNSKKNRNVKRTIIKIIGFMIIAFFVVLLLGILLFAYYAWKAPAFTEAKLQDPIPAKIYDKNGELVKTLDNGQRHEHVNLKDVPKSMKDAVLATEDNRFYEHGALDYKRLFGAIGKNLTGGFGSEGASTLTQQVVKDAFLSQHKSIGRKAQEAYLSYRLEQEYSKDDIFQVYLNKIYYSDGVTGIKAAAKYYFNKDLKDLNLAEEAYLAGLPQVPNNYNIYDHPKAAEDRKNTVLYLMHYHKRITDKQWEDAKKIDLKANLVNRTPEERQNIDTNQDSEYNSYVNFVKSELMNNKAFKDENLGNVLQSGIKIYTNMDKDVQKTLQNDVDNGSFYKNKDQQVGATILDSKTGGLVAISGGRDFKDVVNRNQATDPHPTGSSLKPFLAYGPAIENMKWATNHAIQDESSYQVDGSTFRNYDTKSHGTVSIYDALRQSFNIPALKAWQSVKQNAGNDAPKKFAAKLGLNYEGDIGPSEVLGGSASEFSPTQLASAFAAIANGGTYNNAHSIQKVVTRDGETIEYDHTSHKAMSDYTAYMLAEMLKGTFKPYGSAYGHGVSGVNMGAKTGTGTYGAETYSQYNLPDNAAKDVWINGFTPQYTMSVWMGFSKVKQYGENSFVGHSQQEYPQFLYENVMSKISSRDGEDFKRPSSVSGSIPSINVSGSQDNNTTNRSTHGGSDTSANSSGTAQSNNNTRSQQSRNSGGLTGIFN
Method: S. aureus PBP2 was over-expressed and purified as described^4,5. The IC50s for moenomycin and neryl compounds were carried out using the following reaction condition: (0-50 μM) and PBP2 (final concentration 30 nM) were incubated in Eppendorf tubes containing 9 μL of buffer [(50 mM HEPES buffer, 50 mM MOPS, 50 mM MES, 50 mM AcOH) at pH 5.0, 10 mM CaCl2, 20% DMSO (v/v), 250 unit/mL penicillin G] for 30 min. The reaction was initiated by adding 4 μM [^14C]-GlcNAc-labeled lipid II analogue^4 (specific activity=101 cpm/pmol) and quenched after 80 min with 10 μL of ice-cold 10 mM Tris (pH=8.0) containing 0.2% Triton X-100. The reaction mixture was immediately spotted on cellulose chromatography paper (3MM Whatmann). Products and starting material were separated using chromatography (isobutryic acid:1 N NH4OH=5:3) and quantitated by scintillation counting. The data were fit using Prism, as described^3,4.

[2] = system: E. faecalis, bacterial strain 29212; assay: MIC, standard microdilution assay, E. faecalis; type: cell-based; details: Enterococcus faecalis, no visible growth after 35° C. for 22 h, read-out: MIC (μg/ml) E. faecalis
Excerpt: (§1) MIC values (μg/mL) were obtained using a standard microdilution assay.

[3] = system: bacteria; details: on a molar basis, cited from earlier work
[4] = system: S. aureus, bacterial strain 29213; assay: MIC, standard microdilution assay, S. aureus; type: cell-based; details: Staphylococcus aureus, no visible growth after 35° C. for 22 h, read-out: MIC (μg/ml) S. aureus
Excerpt: as §1

[5] = target: T2, E. faecalis PBP2a (Enterococcus faecalis, UniProt Q837Z4); assay: IC50 for transglycosylase inhibition, E. faecalis PBP2a, [14C]-GlcNAc-labeled lipid II analogue; type: biochemical
T2 sequence (Q837Z4 1-728): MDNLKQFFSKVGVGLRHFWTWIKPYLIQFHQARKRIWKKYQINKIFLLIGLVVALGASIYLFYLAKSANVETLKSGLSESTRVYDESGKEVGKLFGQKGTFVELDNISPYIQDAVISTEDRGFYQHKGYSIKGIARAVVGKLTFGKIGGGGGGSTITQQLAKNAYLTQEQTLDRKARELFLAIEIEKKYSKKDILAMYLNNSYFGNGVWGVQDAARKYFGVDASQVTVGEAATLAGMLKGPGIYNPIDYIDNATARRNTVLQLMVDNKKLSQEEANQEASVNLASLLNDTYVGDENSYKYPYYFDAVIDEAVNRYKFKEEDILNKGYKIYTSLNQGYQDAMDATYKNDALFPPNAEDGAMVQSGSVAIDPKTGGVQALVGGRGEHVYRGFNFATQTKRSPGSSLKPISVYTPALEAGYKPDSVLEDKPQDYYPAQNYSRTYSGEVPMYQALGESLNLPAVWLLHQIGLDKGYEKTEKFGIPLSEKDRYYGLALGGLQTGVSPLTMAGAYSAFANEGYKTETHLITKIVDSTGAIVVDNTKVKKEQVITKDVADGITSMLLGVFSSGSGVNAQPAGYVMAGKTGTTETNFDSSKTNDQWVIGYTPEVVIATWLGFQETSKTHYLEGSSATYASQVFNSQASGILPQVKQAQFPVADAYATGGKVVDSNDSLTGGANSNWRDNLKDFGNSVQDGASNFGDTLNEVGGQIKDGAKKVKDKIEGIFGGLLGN
Excerpt: The pbp2a gene was PCR-amplified from E. faecalis (CL4877) purified genomic DNA using the following primer pair: 5′-[…] AATCTTAAACAATTTTTT-3′ (SEQ ID NO: 1) and 5′[…]-3′ (SEQ ID NO: 2). The first primer introduced a NdeI restriction site (underlined), and the second primer introduced a XhoI site into the PCR product. The PCR product was subcloned into pET42 (Novagen) for expression in E. coli BL21(DE3) (Novagen) as a C-terminal His8 fusion. PBP2a was expressed after induction of a log phase culture grown at 37° C. with 1 mM IPTG and grown at 15° C. for an additional 20 h. The cells were harvested by centrifugation, and the cell pellets were resuspended in buffer A (20 mM Tris-HCl, 150 mM NaCl, pH 7.4) supplemented with 360 kU of rLysozyme (Novagen). The cells were lysed using a French pressure cell at 16,000 psi in buffer A. Freely soluble proteins were decanted and the pellet resuspended in buffer A containing 0.5% Sarkosyl to release membrane-anchored PBP2a. […] Fractions were analyzed by 12% SDS-PAGE, pooled and concentrated using a Amicon Ultra Centrifuga Filter Device (50K MW cutoff). […]
IC50 Values for PBP2a. […] Products and starting material were separated using chromatography (isobutryic acid:1 N NH4OH=5:3) and quantitated by scintillation counting. […]

[6] = cited from earlier work

| SMILES | IC50 [1] | MIC [2] | potency relative to vancomycin ([3]; listed as Moenomycin A) | potency relative to vancomycin ([3]; listed as moenomycin A) | MIC [4] | IC50 [5] | absorption upon oral administration ([6]; oral) | pharmacokinetic properties ([6]; related to the lipid side chain) | IC50 ([5]; PBP2a 52 nM, pH 7.5, 4 μM lipid II analogue, read-out: IC50 (μg/ml) E. faecalis PBP2a (converted)) |
| --- | --- | --- | --- | --- | --- | --- | --- | --- | --- |
| C=C(C/C=C(\C)CCC=C(C)C)CCC(C)(C)/C=C/CC/C(C)=C\CO[C@H](COP(=O)(O)O[C@H]1OC(C(N)=O)[C@@](C)(O)[C@H](OC(N)=O)C1O[C@@H]1OC(CO[C@@H]2OC(CO)[C@@H](O)[C@H](O)C2O)[C@@H](O[C@@H]2OC(C)[C@@H](O[C@@H]3OC(C(=O)NC4=C(O)CCC4=O)[C@H](O)[C@H](O)C3O)[C@H](O)C2NC(C)=O)[C@H](O)C1NC(C)=O)C(=O)O (stereo partly drawn) [compound 1, Moenomycin A] | 22.1 nM | 0.063 µg/mL (≈ 0.0398 µM) | a thousand times more potent than the antibiotic vancomycin | a thousand times more potent than vancomycin | 0.016 µg/mL (≈ 0.0101 µM) | 26.5 nM | relatively poor | poor pharmacokinetic properties | – |
| CC(=O)NC1[C@H](O[C@@H]2C(CO[C@@H]3OC(CO)[C@@H](O)[C@H](O)C3O)O[C@@H](OC3[C@@H](OP(=O)(O)OC[C@@H](OC/C=C(/C)CCC=C(C)C)C(=O)O)OC(C(N)=O)[C@@](C)(O)[C@@H]3OC(N)=O)C(NC(C)=O)[C@H]2O)OC(C)[C@@H](O[C@@H]2OC(C(=O)NC3=C(O)CCC3=O)[C@H](O)[C@H](O)C2O)[C@@H]1O (stereo partly drawn) [compound 15] | 41.4 nM | > 250 µg/mL | – | – | > 250 µg/mL | – | – | – | 16 nM |
